Assay results taken from patent US20260174875A1 (Novo Nordisk A/S, priority 2023, published 2026).
Where two headings read alike, the source gives them in different places. Numbered stars: 1 amine (or outer) side, 2 acyl side, 3 side chain; on linkers, the order of the positions; unused ones are H or OH. Square brackets hold non-standard residues; d marks the D form. Side chains are listed from the residue outwards. * marks the point of attachment. C20 diacid = O=C(O)CCCCCCCCCCCCCCCCCCC(=O)*; C18 diacid = O=C(O)CCCCCCCCCCCCCCCCC(=O)*; γGlu = O=C(O)[C@H](CCC(=O)[*:2])N[*:1]; AEEA = NCCOCCOCC(=O)O; Aib = CC(C)(N)C(=O)O

Legend:
Type in all cases: cell-based
[1] = target: T1, human amylin receptor (hAMYR3) (Homo sapiens, UniProt O60896+P30988); experiment: Amylin receptor assay, method A (CRE-luciferase reporter, BHK cells)
T1 construct: host or cells: BHK cells (Hollex-1 line expressing hCTR(a) and CRE-Luc), further transfected with human RAMP3
Protocol: (§1) To assess how the activation of the receptors is potentially influenced by the presence of human serum albumin (HSA), the in vitro assays were performed in the absence of HSA and presence of 1% (w/v) HSA.
It is thus possible to measure hAMYR3 activity using a CRE-luciferase reporter gene introduced into Baby Hamster Kidney (BHK) cells co-expressing the hAMYR3.
The cell line was further transfected with human receptor modifying protein 3 (RAMP3) using standard methods.
After centrifugation, the cell pellet was resuspended and diluted to approximately 2.5-4.0×10^6 (2.5E+6 to 4.0E+6) cells/mL in Recovery™ Cell Culture Freezing Medium (Gibco, 12648-010). Cells were aliquoted and stored at −180° C. until use.
The assay buffer consisted of DMEM without phenol red (Gibco, 11880-028) supplemented with 1× GlutaMAX (Gibco, 35050-038), 10 mM HEPES (Gibco, 15630-056) and 1% (w/v) ovalbumin (Sigma, A5503) either with or without 0.1% (v/v) Pluronic F-68 (Gibco, 24040-032) and either with or without HSA (Sigma, A9511).
The plate was incubated over night at 37° C. in 5% CO2. […] Luminescence was detected on a luminescence plate reader e.g., a Synergy 2 (BioTek).

[2] = target: T2, human GLP-1 receptor (hGLP-1R) (Homo sapiens, UniProt P43220); experiment: GLP-1 receptor assay, method A (CRE-luciferase reporter, BHK cells)
T2 construct: expressed in transfected cells
Protocol: as §1
Cells at approximately 80-90% confluence were washed once in PBS (Gibco 14190-094) and loosened from the cell flasks with Versene (Gibco, 15040-033). […] Cells were aliquoted and stored at −180° C. until use.
(§2) The assay buffer consisted of DMEM without phenol red (Gibco, 11880-028) supplemented with 1× GlutaMAX (Gibco, 35050-038), 10 mM HEPES (Gibco, 15630-056), 1% (w/v) ovalbumin (Sigma, A5503) and 0.1% (v/v) Pluronic F-68 (Gibco, 24040-032) either with HSA or without HSA (Sigma, A9511).
Frozen stocks of hGLP-1R BHK CRE-Luc cells were thawed in a 37° C. water bath, washed once in PBS (Gibco 14190-094) and diluted to 1.5×10^6 (1.5E+6) cells/mL in assay buffer with or without 2% (w/v) HSA (Sigma, A9511). […] The assay plates were incubated for 3 hours at 37° C. in 5% CO2, left at room temperature for 5 minutes after which 100 μL steadylite Plus™ (PerkinElmer/Revvity, 6066759) was added to each well. Plates were sealed and incubated at room temperature with gentle shaking for 30 minutes while protected from light. Luminescence was detected on a luminescence plate reader e.g., a Synergy 2 (BioTek).

[3] = target: T3, human GIP receptor (hGIPR) (Homo sapiens, UniProt P48546); experiment: GIP receptor assay, method A (CRE-luciferase reporter, BHK cells)
T3 construct: expressed in transfected cells
T3 sequence (P48546 22-466): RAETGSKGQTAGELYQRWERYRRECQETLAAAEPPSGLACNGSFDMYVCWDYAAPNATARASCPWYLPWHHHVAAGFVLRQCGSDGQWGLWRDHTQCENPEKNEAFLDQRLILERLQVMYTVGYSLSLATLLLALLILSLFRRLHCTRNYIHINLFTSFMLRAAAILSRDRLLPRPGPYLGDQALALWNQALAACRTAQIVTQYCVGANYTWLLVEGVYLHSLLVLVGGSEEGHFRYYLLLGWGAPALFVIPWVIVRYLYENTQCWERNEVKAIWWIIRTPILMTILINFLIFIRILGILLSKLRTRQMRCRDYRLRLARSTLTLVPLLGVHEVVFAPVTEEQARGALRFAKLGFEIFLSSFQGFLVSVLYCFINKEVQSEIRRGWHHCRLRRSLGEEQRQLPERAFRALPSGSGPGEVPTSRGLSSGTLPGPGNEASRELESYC
Protocol: To assess how the activation of the receptors is potentially influenced by the presence of human serum albumin (HSA), the in vitro assays were performed in the absence of HSA and presence of 1% (w/v) HSA. Unless stated otherwise the reference to the “GIP receptor assay as described in Example 4” throughout the specification shall refer to the described herein assay procedure method A (hGIPR assay) in the absence of HSA.
Activation of the human GIP receptor leads to increased intra-cellular concentrations of cyclic AMP (cAMP) and the consequent transcription activation from promoters containing multiple copies of the cAMP response element (CRE). It is thus possible to measure GIP receptor activity using a CRE-luciferase reporter gene introduced into Baby Hamster Kidney (BHK) cells co-expressing the human GIP receptor.
Cells at about 80-90% confluency were washed once with PBS (Gibco 14190-094) and detached from the cell flasks with Versene (Gibco, 15040-066). After centrifugation, the cells were counted, resuspended and diluted to approximately 1.5-3.0×10^6 (1.5E+6 to 3.0E+6) cells/mL in Recovery Cell Culture Freezing Medium (Gibco, 12648-010) and stored at −180° C. in suitable aliquots until use.
as §2
On the day before the assay hGIPR BHK Cre-Luc cells were thawed and plated out in 96 well Culture Plates (PerkinElmer/Revvity, 6005680) at 5.0×10^3 (5.0E+3) cells/well in growth medium as described above. The plates were then incubated for 21-23 hours at 37° C. with 5% CO2. On the day of the assay GLP-1-/GIP-/amylin-receptor tri-agonists or reference compounds were diluted in assay buffer using a 7-point, 10-fold titration plus a blank (absence of compound). Each compound was diluted and tested in duplicates in each experiment. In the plates containing the cells the growth medium was removed, and cells were washed twice with 100 μL PBS (Gibco 14190-094). 50 μL of the test compound dilutions were added to the plates containing cells preceded by 50 μL assay buffer with or without 2% (w/v) HSA (Sigma, A9511). The cell plates were incubated for 3 hours in a 5% CO2 incubator at 37° C. The plates were then transferred to room temperature followed by addition of 100 μL steadylite Plus™ (PerkinElmer/Revvity, 6066759). The plates were sealed and shaken for 30 minutes at room temperature while protected from light. Finally, luminescence (as an indicator of receptor activation) was measured on a Mithras reader (Berthold Technologies, DE). The EC50-values [pM] were calculated by non-linear curve fitting applying a four-parameter logistic model (Hill slope=“shared value for all datasets”) using GraphPad Prism (GraphPad Software, Boston, MA, USA).

[4] = hAMYR3 Potency, 1% HSA, EC50, method A, in the presence of 1% HSA
[5] = method A, absence of HSA, read-out: hAMYR3 Potency, no HSA, EC50
[6] = hGLP-1R Potency, 1% HSA, EC50, method A, in the presence of 1% HSA
[7] = method A, absence of HSA, read-out: hGLP-1R Potency, no HSA, EC50
[8] = hGIPR Potency, 1% HSA, EC50, method A, in the presence of 1% HSA
[9] = method A, absence of HSA, read-out: hGIPR Potency, no HSA, EC50

T2 sequence (P43220 24-463): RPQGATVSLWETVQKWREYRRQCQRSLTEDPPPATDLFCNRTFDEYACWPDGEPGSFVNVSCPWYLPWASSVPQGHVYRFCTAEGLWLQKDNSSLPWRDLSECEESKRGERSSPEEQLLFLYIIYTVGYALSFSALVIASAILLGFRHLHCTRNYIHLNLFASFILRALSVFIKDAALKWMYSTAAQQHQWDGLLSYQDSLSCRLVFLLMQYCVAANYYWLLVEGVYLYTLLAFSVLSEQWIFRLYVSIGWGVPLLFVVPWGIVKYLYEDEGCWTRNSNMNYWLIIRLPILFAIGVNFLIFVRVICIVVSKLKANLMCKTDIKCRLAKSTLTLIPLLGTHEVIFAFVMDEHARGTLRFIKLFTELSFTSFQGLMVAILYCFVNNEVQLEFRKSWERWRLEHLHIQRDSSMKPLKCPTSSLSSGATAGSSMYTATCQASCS
T1 sequence (P30988 25-474): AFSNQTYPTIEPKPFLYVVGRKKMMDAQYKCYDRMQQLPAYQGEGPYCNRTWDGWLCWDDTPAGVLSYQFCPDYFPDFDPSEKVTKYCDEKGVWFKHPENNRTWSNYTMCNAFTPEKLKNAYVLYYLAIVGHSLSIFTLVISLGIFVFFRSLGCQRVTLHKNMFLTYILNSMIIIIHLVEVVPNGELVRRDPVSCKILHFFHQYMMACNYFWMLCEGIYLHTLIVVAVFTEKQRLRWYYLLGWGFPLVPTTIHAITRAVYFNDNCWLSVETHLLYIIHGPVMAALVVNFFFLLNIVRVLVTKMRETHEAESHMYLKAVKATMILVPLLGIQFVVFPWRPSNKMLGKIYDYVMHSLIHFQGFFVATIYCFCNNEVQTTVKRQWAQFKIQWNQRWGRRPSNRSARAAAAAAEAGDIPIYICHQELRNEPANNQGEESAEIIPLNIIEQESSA
T1 sequence (O60896 24-148): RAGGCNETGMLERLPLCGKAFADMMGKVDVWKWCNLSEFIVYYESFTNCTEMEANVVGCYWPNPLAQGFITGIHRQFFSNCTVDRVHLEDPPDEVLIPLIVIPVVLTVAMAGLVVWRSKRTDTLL

EC50 [1, 4] | EC50 [1, 5] | EC50 [2, 6] | EC50 [2, 7] | EC50 [3, 8] | EC50 [3, 9] | Substance
0.0594 nM | 0.00453 nM | 0.0184 nM | 0.00348 nM | 0.0191 nM | 0.00589 nM | H[Aib]HGTFTSDYSILLEEQAAREFIEWLLAGGPSRGAPPPSGGGEASELSTAALGRLSAELHK([AEEA-AEEA-γGlu-C18 diacid])LATLPRTETGSGSP-NH2 [Compound 70]
– | 0.00309 nM | – | 0.0271 nM | – | 0.00262 nM | Y[Aib]EGTFTSDYSILLEEQAAREFIEWLLAGGPSK([AEEA-AEEA-γGlu-C18 diacid])GEASELSTAALGRLSAELHYLATLPRTETGSGSP-NH2 [Compound 29]
0.113 nM | 0.00288 nM | 0.0489 nM | 0.0126 nM | 0.0125 nM | 0.00308 nM | Y[Aib]EGTFTSDYSILLEEQAAREFIEWLLAGGPSSGALQAPGQAPLASHLSTAQTARLSAELHK([AEEA-AEEA-γGlu-C18 diacid])LATLPRTETGSGSP-NH2 [Compound 105]
0.274 nM | 0.00866 nM | 0.0184 nM | 0.00334 nM | 0.00928 nM | 0.00277 nM | H[Aib]HGTFTSDYSILLEEQAAREFIEWLLAGGPSRGAPPPSGGGEASHLSTQTQGRLSAELHK([AEEA-AEEA-γGlu-C18 diacid])LATLPRTETGSGSP-NH2 [Compound 71]
– | 0.00549 nM | – | 0.0233 nM | – | 0.00163 nM | Y[Aib]EGTFTSDYSILLEEQAAREFIEWLLAGGPSK([AEEA-AEEA-γGlu-C18 diacid])GGGGEGGGEGEASHLSTAQTQRLSAELHELATLPRTETGSGSP-NH2 [Compound 40]
0.108 nM | 0.0023 nM | 0.0431 nM | 0.0133 nM | 0.0112 nM | 0.00258 nM | Y[Aib]EGTFTSDYSILLEEQAAREFIEWLLAGGPSSGAGQAPGQAPLASHLSTAQTARLSAELHK([AEEA-AEEA-γGlu-C18 diacid])LATLPRTETGSGSP-NH2 [Compound 98]
– | 0.0038 nM | – | 0.00368 nM | – | 0.0063 nM | H[Aib]HGTFTSDYSILLEEQAAREFIEWLLAGGPSK([AEEA-AEEA-γGlu-C18 diacid])GALAQTLGTNEASELSTAALGRLSAELHRLATLPRTETGSGSP-NH2 [Compound 44]
– | 0.0101 nM | – | 0.0276 nM | – | 0.00809 nM | Y[Aib]EGTFTSDYSILLEEQAAREFIEWLLAGGPSK([AEEA-AEEA-γGlu-C18 diacid])GAEASELSTAALGRLSAELHELATLPRTETGSGSP-NH2 [Compound 32]
0.43 nM | 0.00311 nM | 0.0636 nM | 0.0199 nM | 0.0111 nM | 0.00282 nM | Y[Aib]EGTFTSDYSILLEEQAAREFIEWLLAGGPSSGAGQAPGQAPGASHLSTAQTQRLSAELHRLATLPK([AEEA-AEEA-γGlu-C20 diacid])TETGSGSP-NH2 [Compound 76]
– | 0.00517 nM | – | 0.0153 nM | – | 0.0012 nM | Y[Aib]EGTFTSDYSILLEEQAAREFIEWLLAGGPSK([AEEA-AEEA-γGlu-C18 diacid])GALAQTLGTNEASELSTAALGRLSAELHELATLPRTETGSGSP-NH2 [Compound 23]
0.293 nM | 0.00149 nM | 0.0191 nM | 0.00416 nM | 0.0173 nM | 0.00357 nM | H[Aib]HGTFTSDYSILLEEQAAREFIEWLLAGGPSSGAGQAPGQAPGASHLSTAQTARLSAELHK([AEEA-AEEA-γGlu-C20 diacid])LATLPRTETGSGSP-NH2 [Compound 104]
0.0452 nM | 0.00227 nM | 0.126 nM | 0.0433 nM | 0.0172 nM | 0.00429 nM | Y[Aib]EGTFTSDYSILLEEQAAREFIEWLLAGGPSSGAGQAPGQAPGASHLSTAALARLSAELHK([AEEA-AEEA-γGlu-C18 diacid])LATLPRTETGSGSP-NH2 [Compound 114]
0.0931 nM | 0.00307 nM | 0.0139 nM | 0.0041 nM | 0.00876 nM | 0.00387 nM | H[Aib]HGTFTSDYSILLEEQAAREFIEWLLAGGPSSGALQAPGQAPGASHLSTAQTARLSAELHRLATLPK([AEEA-AEEA-γGlu-C18 diacid])TETGSGSP-NH2 [Compound 107]
0.589 nM | 0.00657 nM | 0.0417 nM | 0.0131 nM | 0.00979 nM | 0.00212 nM | Y[Aib]EGTFTSDYSILLEEQAAREFIEWLLAGGPSRGAPPPSGGGEASHLSTQTQGRLSAELHK([AEEA-AEEA-γGlu-C18 diacid])LATLPRTETGSGSP-NH2 [Compound 72]
0.0664 nM | 0.00333 nM | 0.0348 nM | 0.0159 nM | 0.0122 nM | 0.00366 nM | Y[Aib]EGTFTSDYSILLEEQAAREFIEWLLAGGPSSGAGQAPGQAPGASHLSTAQTQRLSAELHRLK([AEEA-AEEA-AEEA-γGlu-C18 diacid])TLPRTETGSGSP-NH2 [Compound 111]
– | 0.00226 nM | – | 0.0379 nM | – | 0.0024 nM | Y[Aib]EGTFTSDYSILLEEQAAREFIEWLLAGGPSK([AEEA-AEEA-γGlu-C18 diacid])GAPPPSGGGGASELSTAALGRLSAELHRLATLPRTETGSGSP-NH2 [Compound 13]

Substance | EC50 [1, 4] | EC50 [1, 5] | EC50 [2, 6] | EC50 [2, 7] | EC50 [3, 8] | EC50 [3, 9]
Y[Aib]EGTFTSDYSILLEEQAAREFIEWLLAGGPSSGAPPPSGGGEASHLSTAQTQRLSAELHK([AEEA-AEEA-γGlu-C18 diacid])LATLPRTETGSGSP-NH2 [Compound 49] | 0.106 nM | 0.00185 nM | 0.11 nM | 0.0333 nM | 0.0167 nM | 0.00436 nM
